What was measured:
Adenosine A2 receptor = Adenosine A2 receptor (Rattus norvegicus, UniProt P29276+P30543)
Description: Binding affinity for A2-adenosine receptor by the displacement of specific [3H]-CGS- binding in rat striatal membranes was determined

[1] = Ratio of binding affinities for A2 receptor compared to that of A3 receptor
Adenosine receptor A1 = target: T1, Adenosine receptor A1 (Rattus norvegicus, UniProt P25099); test: biochemical
T1 sequence (P25099 whole entry): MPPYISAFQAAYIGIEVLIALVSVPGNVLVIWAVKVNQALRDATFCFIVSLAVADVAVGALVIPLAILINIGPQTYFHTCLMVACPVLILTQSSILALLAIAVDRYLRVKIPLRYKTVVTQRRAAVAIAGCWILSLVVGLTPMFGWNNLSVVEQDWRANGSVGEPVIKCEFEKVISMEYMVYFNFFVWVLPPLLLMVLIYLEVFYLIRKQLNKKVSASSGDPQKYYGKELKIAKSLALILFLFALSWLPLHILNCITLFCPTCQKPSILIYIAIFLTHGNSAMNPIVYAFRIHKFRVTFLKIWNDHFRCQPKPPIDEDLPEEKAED
Description: Binding affinity for A1-adenosine receptor by the displacement of specific [3H]-PIA binding in rat brain was determined

Adenosine receptor A3 [2] = target: T2, Adenosine receptor A3 (Rattus norvegicus, UniProt P28647); test: biochemical
T2 sequence (P28647 whole entry): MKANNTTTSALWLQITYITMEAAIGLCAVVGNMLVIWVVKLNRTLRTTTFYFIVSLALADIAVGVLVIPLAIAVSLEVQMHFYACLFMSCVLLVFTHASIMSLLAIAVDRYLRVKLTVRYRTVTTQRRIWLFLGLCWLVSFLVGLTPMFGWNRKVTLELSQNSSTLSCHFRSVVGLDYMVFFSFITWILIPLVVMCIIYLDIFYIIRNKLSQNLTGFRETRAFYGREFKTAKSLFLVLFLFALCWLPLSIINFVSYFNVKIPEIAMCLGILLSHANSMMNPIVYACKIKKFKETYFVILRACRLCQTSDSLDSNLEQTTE
Description: Binding affinity for rat A3-adenosine receptor expressed in chinese hamster ovarian cells (assayed by the displacement of specific [125I]-N6-(4-amino-3-iodobenzyl)-adenosine-5''-N-methyluronamide)

[3] = target: T3, Adenosine receptor A1 (Rattus norvegicus) (UniProt P25099); test: Percentage inhibition against [3H]-PIA binding to A1-adenosine receptor in rat brain at 10e-4 nM; assay type: tissue-based
T3 sequence (whole entry): T1 sequence (P25099 whole entry)

[4] = target: T4, Adenosine A2 receptor (Rattus norvegicus) (UniProt P29276+P30543); test: Percentage inhibition of [3H]-CGS- 21680 binding to […] receptor in rat brain at 10e-4 nM; assay type: tissue-based
Adenosine receptor A3 [5] = target: T2, Adenosine receptor A3
Description: Binding affinity for recombinant rat A3-adenosine receptor by the displacement of specific [125I]APNEA or [125I]-N6-(4-amino-3-iodobenzyl)-adenosine-5'-N-methyluronamide

[6] = target: T4, Adenosine A2 receptor (Rattus norvegicus); test: Percentage inhibition of [3H]-CGS- 21680 binding to […] receptor in rat brain at 10e-5 nM; assay type: tissue-based
[7] = target: T3, Adenosine receptor A1 (Rattus norvegicus); test: Percentage inhibition against [3H]PIA binding to A1-adenosine receptor in rat brain at 10e-5 nM; assay type: tissue-based
[8] = target: T3, Adenosine receptor A1 (Rattus norvegicus); conditions: Brain, 10e-5 nM
[9] = target: T4, Adenosine A2 receptor (Rattus norvegicus); conditions: Brain, 10e-5 nM
Description: Percentage inhibition against [3H]-CGS- 21680 binding to A1-adenosine receptor in rat brain at 10e-5 nM

[10] = target: T4, Adenosine A2 receptor (Rattus norvegicus); test: Percentage inhibition against [3H]-CGS- 21680 binding to A2-adenosine receptor in rat brain at 1xe-4 nM; assay type: tissue-based
[11] = target: T3, Adenosine receptor A1 (Rattus norvegicus); test: Percentage inhibition against [3H]PIA binding to A1-adenosine receptor in rat brain at 1xe-4 nM; assay type: tissue-based

Structure (SMILES): CCNC(=O)[C@H]1O[C@@H](n2cnc3c(NCc4cccc(Cl)c4)ncnc32)[C@H](O)[C@@H]1O
- Ki (Adenosine A2 receptor): 19 nM
- Ratio [1]: 17

Structure (SMILES): CCNC(=O)[C@H]1O[C@@H](n2cnc3c(NCc4cccc(F)c4)ncnc32)[C@H](O)[C@@H]1O
- Ki (Adenosine A2 receptor): 32 nM
- Ratio [1]: 3

Structure (SMILES): CCNC(=O)[C@H]1OC(n2cnc3c(NCc4cccc(Br)c4)ncnc32)[C@H](O)[C@@H]1O (stereo partly specified)
- Ki (Adenosine receptor A1): 10.9 nM
- Ki (Adenosine receptor A3 [2]): 2.8 nM

Structure (SMILES): CNC(=O)[C@H]1O[C@@H](n2cnc3c(O)ncnc32)[C@H](O)[C@@H]1O
- inhibition [3]: 0%
- inhibition [4]: 6.2%
- Ratio [1]: > 10

Structure (SMILES): CNC(=O)[C@H]1OC(n2cnc3c(NCc4ccc(N)cc4)ncnc32)[C@H](O)[C@@H]1O (stereo partly specified)
- Ki (Adenosine A2 receptor): 1590 nM
- Ratio [1]: 110

Structure (SMILES): CCNC(=O)[C@H]1O[C@@H](n2cnc3c(NCc4ccc([N+](=O)[O-])cc4)ncnc32)[C@H](O)[C@@H]1O
- Ratio [1]: 64

Structure (SMILES): NC(=O)[C@H]1OC(n2cnc3c(N)ncnc32)[C@H](O)[C@@H]1O (stereo partly specified)
- Ki (Adenosine A2 receptor): 120 nM
- Ki (Adenosine receptor A3 [5]): 1410 nM
- Ki (Adenosine receptor A1): 72.6 nM
- Ratio [1]: 0.085

Structure (SMILES): CNC(=O)[C@H]1OC(n2cnc3c(NCc4cccc(NC(C)=O)c4)ncnc32)[C@H](O)[C@@H]1O (stereo partly specified)
- Ki (Adenosine A2 receptor): 988 nM
- Ki (Adenosine receptor A1): 2970 nM
- Ki (Adenosine receptor A3 [2]): 41.4 nM
- Ratio [1]: 24

Structure (SMILES): CCNC(=O)[C@H]1O[C@@H](n2cnc3c(NCc4ccccc4[N+](=O)[O-])ncnc32)[C@H](O)[C@@H]1O
- Ki (Adenosine A2 receptor): 24 nM
- Ratio [1]: 8.6

Structure (SMILES): CCNC(=O)[C@H]1OC(n2cnc3c(N[C@@H](C)c4ccccc4)ncnc32)[C@H](O)[C@@H]1O (stereo partly specified)
- Ki (Adenosine A2 receptor): 1650 nM
- Ki (Adenosine receptor A1): 65 nM
- Ki (Adenosine receptor A3 [2]): 494 nM
- Ratio [1]: 3.3

Structure (SMILES): CCNC(=O)[C@H]1OC(n2cnc3c(=O)[nH]cnc32)[C@H](O)[C@@H]1O (stereo partly specified)
- Ki (Adenosine receptor A3 [5]): 5000 nM

Structure (SMILES): O=C(NC1CC1)[C@H]1OC(n2cnc3c(NCc4ccccc4)ncnc32)[C@H](O)[C@@H]1O (stereo partly specified)
- Ki (Adenosine A2 receptor): 55 nM
- Ki (Adenosine receptor A3 [5]): 103 nM
- Ki (Adenosine receptor A1): 112 nM
- Ratio [1]: 0.53

Structure (SMILES): CNC(=O)[C@H]1OC(n2cnc3c(NCc4cccc(N)c4)ncnc32)[C@H](O)[C@@H]1O (stereo partly specified)
- Ki (Adenosine A2 receptor): 794 nM
- Ki (Adenosine receptor A1): 1000 nM
- Ki (Adenosine receptor A3 [2]): 28 nM
- Ratio [1]: 28

Structure (SMILES): CNC(=O)[C@H]1OC(n2cnc3c(NCc4ccc(Cl)cc4)ncnc32)[C@H](O)[C@@H]1O (stereo partly specified)
- Ki (Adenosine A2 receptor): 2730 nM
- Ki (Adenosine receptor A1): 478 nM
- Ki (Adenosine receptor A3 [2]): 17 nM
- Ratio [1]: 160

Structure (SMILES): CNC(=O)[C@H]1O[C@@H](n2cnc3c(NCc4cccc(Cl)c4)ncnc32)[C@H](O)[C@@H]1O
- Ki (Adenosine A2 receptor): 559 nM
- Ki (Adenosine receptor A3 [5]): 21.9 nM
- Ki (Adenosine receptor A1): 916 nM
- Ratio [1]: 25

Structure (SMILES): CNC(=O)[C@H]1O[C@@H](n2cnc3c(NCc4cccc(Br)c4)ncnc32)[C@H](O)[C@@H]1O
- Ki (Adenosine A2 receptor): 64 nM
- Ki (Adenosine receptor A3 [2]): 1.9 nM
- Ratio [1]: 34

Structure (SMILES): CCNC(=O)[C@H]1O[C@@H](n2cnc3c(NCc4cccc(I)c4)ncnc32)[C@H](O)[C@@H]1O
- Ki (Adenosine A2 receptor): 7.2 nM
- Ratio [1]: 8.2

Structure (SMILES): CNC(=O)[C@H]1OC(n2cnc3c(NCc4cccc(S(=O)(=O)O)c4)ncnc32)[C@H](O)[C@@H]1O (stereo partly specified)
- Ki (Adenosine A2 receptor): 9070 nM
- Ki (Adenosine receptor A1): 19600 nM
- Ki (Adenosine receptor A3 [2]): 1310 nM
- Ratio [1]: 6.9

Structure (SMILES): CCNC(=O)[C@H]1O[C@@H](n2cnc3c(N[C@H](C)c4ccccc4)ncnc32)[C@H](O)[C@@H]1O
- Ki (Adenosine A2 receptor): 259 nM
- Ratio [1]: 14

Structure (SMILES): CNC(=O)[C@H]1O[C@@H](n2cnc3c(NCc4ccccc4)ncnc32)[C@H](O)[C@@H]1O
- Ki (Adenosine A2 receptor): 597 nM
- Ratio [1]: 37

Structure (SMILES): CCNC(=O)[C@H]1O[C@@H](n2cnc3c(NCc4ccc(OC)cc4)ncnc32)[C@H](O)[C@@H]1O
- Ki (Adenosine A2 receptor): 609 nM
- Ratio [1]: 55

Structure (SMILES): CNC(=O)[C@H]1O[C@@H](n2cnc3c(NCc4ccc(N)c(I)c4)ncnc32)[C@H](O)[C@@H]1O
- Ki (Adenosine A2 receptor): 197 nM
- Ki (Adenosine receptor A1): 18 nM

Structure (SMILES): CCNC(=O)[C@H]1O[C@@H](n2cnc3c(NCc4ccccc4OC)ncnc32)[C@H](O)[C@@H]1O
- Ki (Adenosine A2 receptor): 21 nM
- Ratio [1]: 3

Structure (SMILES): CCNC(=O)[C@H]1O[C@@H](n2cnc3c(NCc4cccc(C)c4)ncnc32)[C@H](O)[C@@H]1O
- Ki (Adenosine A2 receptor): 17.7 nM
- Ratio [1]: 15

Structure (SMILES): CNC(=O)[C@H]1O[C@@H](n2cnc3c(NCc4cccc(C)c4)ncnc32)[C@H](O)[C@@H]1O
- Ki (Adenosine A2 receptor): 415 nM
- Ratio [1]: 42

Structure (SMILES): CCNC(=O)[C@H]1O[C@@H](n2cnc3c(NCc4cccc(OC)c4)ncnc32)[C@H](O)[C@@H]1O
- Ki (Adenosine A2 receptor): 38 nM
- Ratio [1]: 8.8

Structure (SMILES): CCNC(=O)[C@H]1O[C@@H](n2cnc3c(NCc4cccc([N+](=O)[O-])c4)ncnc32)[C@H](O)[C@@H]1O
- Ki (Adenosine A2 receptor): 35 nM
- Ratio [1]: 4

Structure (SMILES): CC(C)(C)OC(=O)NCCNC(=O)[C@H]1O[C@@H](n2cnc3c(N)ncnc32)[C@H](O)[C@@H]1O
- inhibition [6]: 0%
- inhibition [7]: 0%
- Ratio [1]: > 1

Structure (SMILES): CCNC(=O)[C@H]1O[C@@H](n2cnc3c(N)[n+](Cc4ccc([N+](=O)[O-])cc4)cnc32)[C@H]([O-])[C@@H]1O
- Ki (Adenosine A2 receptor): 190 nM
- Ki (Adenosine receptor A3 [5]): 60 nM
- Ki (Adenosine receptor A1): 341 nM
- Ratio [1]: 3.2

Structure (SMILES): CCNC(=O)[C@H]1O[C@@H](n2cnc3c(NCc4ccccc4)ncnc32)[C@H](O)[C@@H]1O
- Ki (Adenosine A2 receptor): 95 nM
- Ratio [1]: 14

Structure (SMILES): CNC(=O)[C@H]1OC(n2cnc3c(NCc4ccc(Br)cc4)ncnc32)[C@H](O)[C@@H]1O (stereo partly specified)
- Ki (Adenosine A2 receptor): 2460 nM
- Ki (Adenosine receptor A1): 516 nM
- Ki (Adenosine receptor A3 [2]): 12 nM
- Ratio [1]: 200

Structure (SMILES): CCNC(=O)[C@H]1OC(n2cnc3c(O)ncnc32)[C@H](O)[C@@H]1O (stereo partly specified)
- inhibition [3]: 44%
- inhibition [4]: 31%
- Ratio [1]: > 1

Structure (SMILES): NCCNC(=O)[C@H]1O[C@@H](n2cnc3c(N)ncnc32)[C@H](O)[C@@H]1O
- inhibition [8]: 0%
- inhibition [9]: 12.5%
- Ratio [1]: > 1

Structure (SMILES): CNC(=O)[C@H]1OC(n2cnc3c(NCc4ccc(S(=O)(=O)O)cc4)ncnc32)[C@H](O)[C@@H]1O (stereo partly specified)
- inhibition [10]: 0%
- inhibition [11]: 0%
- Ki (Adenosine receptor A3 [2]): 4500 nM
- Ratio [1]: > 100

Structure (SMILES): CNC(=O)[C@H]1OC(n2cnc3c(NCc4cccc([N+](=O)[O-])c4)ncnc32)[C@H](O)[C@@H]1O (stereo partly specified)
- Ki (Adenosine A2 receptor): 441 nM
- Ki (Adenosine receptor A1): 735 nM
- Ki (Adenosine receptor A3 [2]): 19 nM
- Ratio [1]: 23

Structure (SMILES): CCNC(=O)[C@H]1O[C@@H](n2cnc3c(N)[n+](Cc4ccccc4[N+](=O)[O-])cnc32)[C@H](O)[C@@H]1[O-]
- Ki (Adenosine A2 receptor): 83.5 nM
- Ki (Adenosine receptor A3 [5]): 27 nM
- Ki (Adenosine receptor A1): 196 nM
- Ratio [1]: 3.1

Structure (SMILES): NC(=O)[C@H]1O[C@@H](n2cnc3c(NCc4ccccc4)ncnc32)[C@H](O)[C@@H]1O
- Ki (Adenosine A2 receptor): 423 nM
- Ratio [1]: 1.7

Structure (SMILES): CCNC(=O)[C@H]1OC(n2cnc3c(N)[n+]([O-])cnc32)[C@H](O)[C@@H]1O (stereo partly specified)
- Ki (Adenosine A2 receptor): 101 nM
- Ki (Adenosine receptor A3 [5]): 468 nM
- Ki (Adenosine receptor A1): 154 nM
- Ratio [1]: 0.22

Structure (SMILES): CNC(=O)[C@H]1OC(n2cnc3c(NCc4cccc(C(F)(F)F)c4)ncnc32)[C@H](O)[C@@H]1O (stereo partly specified)
- Ki (Adenosine A2 receptor): 574 nM
- Ki (Adenosine receptor A1): 496 nM
- Ki (Adenosine receptor A3 [2]): 31 nM
- Ratio [1]: 19
